Reference: PubChem BioAssay (NCI)
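Five concentrations, 48 hours, 96-well plates. The concentration for full growth arrest is given as TGI.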

Key:
Experiment in all cases: NCI anticancer screen, dose series, 48 h
NCI-H522 lung = tested on: NCI-H522 lung
ACHN renal = tested on: ACHN renal
SK-MEL-2 melanoma = tested on: SK-MEL-2 melanoma
UO-31 renal = tested on: UO-31 renal
MALME-3M melanoma = tested on: MALME-3M melanoma
U251 CNS = tested on: U251 CNS
BT-549 breast = tested on: BT-549 breast
MOLT-4 leukemia = tested on: MOLT-4 leukemia
CAKI-1 renal = tested on: CAKI-1 renal
EKVX NSCLC = tested on: EKVX NSCLC
SNB-19 CNS = tested on: SNB-19 CNS
HL-60(TB) leukemia = tested on: HL-60(TB) leukemia
NCI-H23 lung = tested on: NCI-H23 lung
SF-268 CNS = tested on: SF-268 CNS
UACC-62 melanoma = tested on: UACC-62 melanoma
NCI-H460 lung = tested on: NCI-H460 lung
T-47D breast = tested on: T-47D breast
SK-MEL-28 melanoma = tested on: SK-MEL-28 melanoma
RPMI-8226 leukemia = tested on: RPMI-8226 leukemia
HS 578T breast = tested on: HS 578T breast
786-0 renal = tested on: 786-0 renal
KM12 colon = tested on: KM12 colon
SF-295 CNS = tested on: SF-295 CNS
MDA-MB-231 breast = tested on: MDA-MB-231 breast
UACC-257 melanoma = tested on: UACC-257 melanoma
OVCAR-4 ovarian = tested on: OVCAR-4 ovarian
A549 NSCLC = tested on: A549 NSCLC
SF-539 CNS = tested on: SF-539 CNS
NCI/ADR-RES ovarian = tested on: NCI/ADR-RES ovarian
OVCAR-5 ovarian = tested on: OVCAR-5 ovarian
COLO 205 colon = tested on: COLO 205 colon
OVCAR-3 ovarian = tested on: OVCAR-3 ovarian
SN12C renal = tested on: SN12C renal
DU-145 prostate = tested on: DU-145 prostate
CCRF-CEM leukemia = tested on: CCRF-CEM leukemia
MDA-MB-435 = tested on: MDA-MB-435
HT29 colon = tested on: HT29 colon
MDA-N = tested on: MDA-N
SK-MEL-5 melanoma = tested on: SK-MEL-5 melanoma
A498 renal = tested on: A498 renal
PC-3 prostate = tested on: PC-3 prostate
HCT-116 colon = tested on: HCT-116 colon
OVCAR-8 ovarian = tested on: OVCAR-8 ovarian
SR leukemia = tested on: SR leukemia
MCF7 breast = tested on: MCF7 breast
SW-620 colon = tested on: SW-620 colon
LOX IMVI melanoma = tested on: LOX IMVI melanoma
SK-OV-3 ovarian = tested on: SK-OV-3 ovarian
HCT-15 colon = tested on: HCT-15 colon
NCI-H226 lung = tested on: NCI-H226 lung
TK-10 renal = tested on: TK-10 renal
RXF 393 renal = tested on: RXF 393 renal
HCC-2998 colon = tested on: HCC-2998 colon
M14 melanoma = tested on: M14 melanoma
HOP-62 NSCLC = tested on: HOP-62 NSCLC
IGROV1 ovarian = tested on: IGROV1 ovarian
HOP-92 NSCLC = tested on: HOP-92 NSCLC
K-562 leukemia = tested on: K-562 leukemia
SNB-75 CNS = tested on: SNB-75 CNS

SMILES: COC(=O)/C=C/CC(=O)NS(C)(=O)=O
- TGI (NCI-H522 lung): > 10 µM
- TGI (ACHN renal): > 10 µM
- TGI (SK-MEL-2 melanoma): > 10 µM
- TGI (UO-31 renal): > 10 µM
- TGI (MALME-3M melanoma): > 10 µM
- TGI (U251 CNS): > 10 µM
- TGI (BT-549 breast): > 10 µM
- TGI (MOLT-4 leukemia): > 10 µM
- TGI (CAKI-1 renal): > 10 µM
- TGI (EKVX NSCLC): > 10 µM
- TGI (SNB-19 CNS): > 10 µM
- TGI (HL-60(TB) leukemia): > 10 µM
- TGI (NCI-H23 lung): > 10 µM
- TGI (SF-268 CNS): > 10 µM
- TGI (UACC-62 melanoma): > 10 µM
- TGI (NCI-H460 lung): > 10 µM
- TGI (T-47D breast): > 10 µM
- TGI (SK-MEL-28 melanoma): > 10 µM
- TGI (RPMI-8226 leukemia): > 10 µM
- TGI (HS 578T breast): > 10 µM
- TGI (786-0 renal): > 10 µM
- TGI (KM12 colon): > 10 µM
- TGI (SF-295 CNS): > 10 µM
- TGI (MDA-MB-231 breast): > 10 µM
- TGI (UACC-257 melanoma): > 10 µM
- TGI (OVCAR-4 ovarian): > 10 µM
- TGI (A549 NSCLC): > 10 µM
- TGI (SF-539 CNS): > 10 µM
- TGI (NCI/ADR-RES ovarian): > 10 µM
- TGI (OVCAR-5 ovarian): > 10 µM
- TGI (COLO 205 colon): > 10 µM
- TGI (OVCAR-3 ovarian): > 10 µM
- TGI (SN12C renal): > 10 µM
- TGI (DU-145 prostate): > 10 µM
- TGI (CCRF-CEM leukemia): > 10 µM
- TGI (MDA-MB-435): > 10 µM
- TGI (HT29 colon): > 10 µM
- TGI (MDA-N): > 10 µM
- TGI (SK-MEL-5 melanoma): > 10 µM
- TGI (A498 renal): > 10 µM
- TGI (PC-3 prostate): > 10 µM
- TGI (HCT-116 colon): > 10 µM
- TGI (OVCAR-8 ovarian): > 10 µM
- TGI (SR leukemia): > 10 µM
- TGI (MCF7 breast): > 10 µM
- TGI (SW-620 colon): > 10 µM
- TGI (LOX IMVI melanoma): > 10 µM
- TGI (SK-OV-3 ovarian): > 10 µM
- TGI (HCT-15 colon): > 10 µM
- TGI (NCI-H226 lung): > 10 µM
- TGI (TK-10 renal): > 10 µM
- TGI (RXF 393 renal): > 10 µM
- TGI (HCC-2998 colon): > 10 µM
- TGI (M14 melanoma): > 10 µM
- TGI (HOP-62 NSCLC): > 10 µM
- TGI (IGROV1 ovarian): > 10 µM

SMILES: CC1(C)COP(=S)(c2ccccn2)O[C@@H]1c1ccccc1 (stereo partly drawn)
- TGI (NCI-H522 lung): > 100 µM
- TGI (ACHN renal): > 100 µM
- TGI (UO-31 renal): > 100 µM
- TGI (HOP-92 NSCLC): > 100 µM
- TGI (MALME-3M melanoma): > 100 µM
- TGI (U251 CNS): > 100 µM
- TGI (BT-549 breast): > 100 µM
- TGI (MOLT-4 leukemia): > 100 µM
- TGI (CAKI-1 renal): > 100 µM
- TGI (EKVX NSCLC): > 100 µM
- TGI (SNB-19 CNS): > 100 µM
- TGI (HL-60(TB) leukemia): > 100 µM
- TGI (NCI-H23 lung): > 100 µM
- TGI (SF-268 CNS): > 100 µM
- TGI (UACC-62 melanoma): > 100 µM
- TGI (NCI-H460 lung): > 100 µM
- TGI (T-47D breast): > 100 µM
- TGI (SK-MEL-28 melanoma): > 100 µM
- TGI (HS 578T breast): > 100 µM
- TGI (786-0 renal): > 100 µM
- TGI (KM12 colon): > 100 µM
- TGI (SF-295 CNS): > 100 µM
- TGI (MDA-MB-231 breast): > 100 µM
- TGI (UACC-257 melanoma): > 100 µM
- TGI (OVCAR-4 ovarian): > 100 µM
- TGI (A549 NSCLC): > 100 µM
- TGI (NCI/ADR-RES ovarian): > 100 µM
- TGI (OVCAR-5 ovarian): > 100 µM
- TGI (COLO 205 colon): > 100 µM
- TGI (K-562 leukemia): > 100 µM
- TGI (SN12C renal): > 100 µM
- TGI (DU-145 prostate): > 100 µM
- TGI (SNB-75 CNS): > 100 µM
- TGI (CCRF-CEM leukemia): > 100 µM
- TGI (MDA-MB-435): > 100 µM
- TGI (HT29 colon): > 100 µM
- TGI (MDA-N): > 100 µM
- TGI (SK-MEL-5 melanoma): 91.1 µM
- TGI (A498 renal): > 100 µM
- TGI (PC-3 prostate): > 100 µM
- TGI (HCT-116 colon): > 100 µM
- TGI (OVCAR-8 ovarian): > 100 µM
- TGI (SR leukemia): > 100 µM
- TGI (MCF7 breast): > 100 µM
- TGI (SW-620 colon): > 100 µM
- TGI (LOX IMVI melanoma): > 100 µM
- TGI (SK-OV-3 ovarian): > 100 µM
- TGI (HCT-15 colon): > 100 µM
- TGI (NCI-H226 lung): > 100 µM
- TGI (TK-10 renal): > 100 µM
- TGI (RXF 393 renal): > 100 µM
- TGI (HCC-2998 colon): > 100 µM
- TGI (M14 melanoma): > 100 µM
- TGI (HOP-62 NSCLC): > 100 µM
- TGI (IGROV1 ovarian): > 100 µM

SMILES: COC(=O)C(=O)C(C(=O)C(=O)Nc1ccc([N+](=O)[O-])cc1[N+](=O)[O-])c1nc2ccc(Cl)cc2[nH]c1=O (stereo not drawn)
- TGI (ACHN renal): > 100 µM
- TGI (SK-MEL-2 melanoma): > 100 µM
- TGI (UO-31 renal): > 100 µM
- TGI (HOP-92 NSCLC): > 100 µM
- TGI (U251 CNS): > 100 µM
- TGI (BT-549 breast): > 100 µM
- TGI (MOLT-4 leukemia): > 100 µM
- TGI (CAKI-1 renal): > 100 µM
- TGI (SNB-19 CNS): > 100 µM
- TGI (HL-60(TB) leukemia): > 100 µM
- TGI (NCI-H23 lung): > 100 µM
- TGI (SF-268 CNS): > 100 µM
- TGI (UACC-62 melanoma): > 100 µM
- TGI (NCI-H460 lung): > 100 µM
- TGI (T-47D breast): > 100 µM
- TGI (SK-MEL-28 melanoma): > 100 µM
- TGI (RPMI-8226 leukemia): > 100 µM
- TGI (HS 578T breast): 90.8 µM
- TGI (786-0 renal): > 100 µM
- TGI (KM12 colon): > 100 µM
- TGI (SF-295 CNS): > 100 µM
- TGI (MDA-MB-231 breast): > 100 µM
- TGI (UACC-257 melanoma): > 100 µM
- TGI (OVCAR-4 ovarian): > 100 µM
- TGI (A549 NSCLC): > 100 µM
- TGI (SF-539 CNS): > 100 µM
- TGI (NCI/ADR-RES ovarian): > 100 µM
- TGI (OVCAR-5 ovarian): > 100 µM
- TGI (COLO 205 colon): > 100 µM
- TGI (K-562 leukemia): > 100 µM
- TGI (OVCAR-3 ovarian): > 100 µM
- TGI (SN12C renal): > 100 µM
- TGI (DU-145 prostate): > 100 µM
- TGI (SNB-75 CNS): 73.1 µM
- TGI (MDA-MB-435): > 100 µM
- TGI (HT29 colon): > 100 µM
- TGI (MDA-N): > 100 µM
- TGI (SK-MEL-5 melanoma): > 100 µM
- TGI (A498 renal): > 100 µM
- TGI (PC-3 prostate): > 100 µM
- TGI (HCT-116 colon): > 100 µM
- TGI (OVCAR-8 ovarian): > 100 µM
- TGI (SR leukemia): > 100 µM
- TGI (MCF7 breast): > 100 µM
- TGI (SW-620 colon): > 100 µM
- TGI (LOX IMVI melanoma): > 100 µM
- TGI (SK-OV-3 ovarian): > 100 µM
- TGI (HCT-15 colon): > 100 µM
- TGI (NCI-H226 lung): > 100 µM
- TGI (RXF 393 renal): > 100 µM
- TGI (HCC-2998 colon): > 100 µM
- TGI (M14 melanoma): > 100 µM
